Assay results as given in patent publication EP4782453A1 (Beyang Therapeutics Co., Ltd., priority 2023, dated 2025).

The compounds below were run against T1, Menin-MLL (Homo sapiens, UniProt O00255) (assay: Inhibitory activity against Menin-MLL binding (fluorescence polarization)). Conditions: Menin-MLL IC50, fluorescence polarization; 150 nM His-Menin, 15 nM FITC-MLL; 25°C for 60 min.
T1 construct: His-Menin (M1-L615 end); purchased BIORTUS BP9210
T1 sequence (O00255 1-615 isoform O00255-1): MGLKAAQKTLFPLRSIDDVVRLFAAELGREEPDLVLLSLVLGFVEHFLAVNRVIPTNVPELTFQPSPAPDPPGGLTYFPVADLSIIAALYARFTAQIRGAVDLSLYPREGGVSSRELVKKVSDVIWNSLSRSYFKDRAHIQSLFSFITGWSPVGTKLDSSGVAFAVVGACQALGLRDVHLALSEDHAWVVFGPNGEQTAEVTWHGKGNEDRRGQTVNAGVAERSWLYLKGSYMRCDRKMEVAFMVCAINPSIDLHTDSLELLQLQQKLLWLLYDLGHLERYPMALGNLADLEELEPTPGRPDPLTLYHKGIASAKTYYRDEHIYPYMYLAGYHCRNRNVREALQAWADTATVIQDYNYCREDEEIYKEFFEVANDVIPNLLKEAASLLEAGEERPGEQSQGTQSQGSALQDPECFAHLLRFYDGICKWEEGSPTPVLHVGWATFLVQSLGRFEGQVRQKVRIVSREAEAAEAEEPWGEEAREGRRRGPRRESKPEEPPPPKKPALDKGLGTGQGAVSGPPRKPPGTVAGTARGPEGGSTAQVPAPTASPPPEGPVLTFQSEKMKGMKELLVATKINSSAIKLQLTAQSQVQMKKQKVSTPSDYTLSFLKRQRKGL
Method in brief: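 Fluorescence polarization competition: compound and 150 nM His-tagged menin (residues M1-L615) sit 15 min at 25 °C in pH 7.5 HEPES buffer with NaCl, DTT and BSA; 15 nM FITC-labelled MLL peptide then binds for 60 min. IC50 fitted sigmoidally from mP values, duplicate wells.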

| Compound | IC50 [µM] |
| --- | --- |
| CCN(C(=O)c1cc(F)ccc1-c1cc([C@H]2CCN(C[C@H]3CC[C@H](NS(=O)(=O)CC)CC3)C2)nc2c1cnn2C)C(C)C [Example 11-2, N-ethyl-5-fluoro-2-{1-methyl-6-[(3S)-1-{[(1r,4r)-4-ethanesulfonamidocyclohexyl]methyl}pyrrolidin-3-yl]-1H-pyrazolo[3,4-b]pyridin-4-yl}-N-(isopropyl)benzamide] | 0.0655 |
| CCN(C(=O)c1cc(F)ccc1-c1cc(C2CCN(C(=O)[C@@H]3CCCCN3)C2)cn2c(C)ncc12)C(C)C (stereo partly drawn) [Example 97] | 0.21 |
| COCCN(C(=O)c1cc(F)ccc1-c1cc(C2CN([C@@H](CCCN3C[C@H]4C[C@@H]3CO4)C(C)C)C2)cn2c(C)ncc12)C(C)C [Example 467-2, 5-fluoro-N-(2-methoxyethyl)-2-(3-methyl-6-{1-[(3S)-2-methyl-6-[(1R,4R)-2-oxa-5-azadicyclo[2.2.1]heptan-5-yl]hexan-3-yl]azacyclobutan-3-yl}imidazo[1,5-a]pyridin-8-yl)-N-(isopropyl)benzamide] | 0.054 |
| Cc1ncc2c(-c3ccc(F)cc3C(=O)N(CC(F)F)C(C)C)cc(N3CCN(C(=O)C4NC5CCC4CC5)CC3)cn12 [Example 94, N-(2,2-difluoroethyl)-5-fluoro-2-(3-methyl-6-{4-[(1R,3S,4S)-2-azabicyclo[2.2.2]octan-3-carbonyl]piperazin-1-yl}imidazo[1,5-a]pyridin-8-yl)-N-(isopropyl)benzamide] | 0.0445 |
| CCN(C(=O)c1cc(F)ccc1-c1cc(N2CCN(CC[C@H]3CC[C@H](NS(=O)(=O)CC)CC3)CC2)cn2c(C)ncc12)C(C)C [Compound 65, N-ethyl-5-fluoro-2-[3-methyl-6-(4-{2-[(1r,4r)-4-ethanesulfonamidocyclohexyl]ethyl}piperazine-1-yl)imidazo[1,5-a]pyridin-8-yl]-N-(isopropyl)benzamide] | 0.136 |
| COCCN(C(=O)c1cc(F)ccc1-c1cc(C2CN(C(CCCN3C[C@H]4C[C@@H]3CO4)C(C)C)C2)cn2c(C)ncc12)C(C)C (stereo partly drawn) [Example 467] | 0.005 |
| CCS(=O)(=O)N[C@H]1CC[C@H](CN2CCC(c3cc(-c4ccc(F)cc4C(=O)N(CC(F)F)C(C)C)c4cnc(C)cn34)CC2)CC1 [Example 154, N-(2,2-difluoroethyl)-5-fluoro-2-[3-methyl-6-(1-{[(1r,4r)-4-ethanesulfonamidocyclohexyl]methyl}piperidin-4-yl)pyrrolo[1,2-a]pyrazin-8-yl]-N-(isopropyl)benzamide] | 0.166 |

Same assay, conditions: fluorescence polarization; 150 nM His-Menin, 15 nM FITC-MLL; 25°C for 60 min; read-out: Menin-MLL IC50

| Compound | IC50 [µM] |
| --- | --- |
| COCC1CN(CCC[C@@H](C(C)C)N2CC(c3cc(-c4ccc(F)cc4C(=O)N4CCOC[C@H]4C)c4cnn(C)c4c3)C2)C1 [Example 183-1] | 0.507 |
| CCN(C(=O)c1cc(F)ccc1-c1cc(C2CN(C(CCC(=O)O)C(C)C)C2)cn2c(C)ncc12)C(C)C (stereo not drawn) [Example 427, 4-[3-(8-{2-[ethyl(isopropyl)aminoformyl]-4-fluorophenyl}-3-methylimidazo[1,5-a]pyridin-6-yl)azacyclobutan-1-yl]-5-methylhexanoic acid] | 0.12 |
| CC(C)CS(=O)(=O)N1CCC(CN2CC(c3cc(-c4ccc(F)cc4C(=O)N4CCOC[C@H]4C)c4cnn(C)c4c3)C2)CC1 [Example 176] | 0.424 |
| CCN(C(=O)c1cc(F)ccc1-c1cc(C2CCN(C[C@H]3C[C@H](NS(=O)(=O)CC)C3)C2)cn2c(C)ncc12)C(C)C (stereo partly drawn) [Example 102] | 0.0705 |
| CCS(=O)(=O)N[C@H]1CC[C@H](CN2CC(c3cc(-c4ccc(F)cc4C(=O)N4CCOC[C@@H]4C)c4cnc(C)n4c3)C2)CC1 [Example 135] | 0.102 |

The next lines start with the values.

| IC50 [µM] | Compound |
| --- | --- |
| 0.06 | Cc1nc(F)c2c(-c3ccc(F)cc3C(=O)N3CCOC[C@H]3C)cc(C3CN(C(CO)C4CCOCC4)C3)cn12 (stereo partly drawn) [Example 309, 2-[3-(1-fluoro-8-{4-fluoro-2-[(3R)-3-methylmorpholin-4-carbonyl]phenyl}-3-methylimidazo[1,5-a]pyridin-6-yl)azacyclobutan-1-yl]-2-(oxacyclohexan-4-yl)ethan-1-ol] |
| 0.0145 | Cc1nc(F)c2c(-c3ccc(F)cc3C(=O)N3CCOC[C@H]3C)cc(C3CN([C@H](CO[C@@H]4CCN(C)C4)C(C)C)C3)cn12 [Example 298, (3R)-4-[5-fluoro-2-(1-fluoro-3-methyl-6-{1-[(2S)-3-methyl-1-{[(3R)-1-methylpyrrolidin-3-yl]oxy}butan-2-yl]azacyclobutan-3-yl}imidazo[1,5-a]pyridin-8yl)benzoyl]-3-methylmorpholine] |
| 0.012 | CCCC(=O)N1CCC(C(C)N2CC(c3cc(-c4ccc(F)cc4C(=O)N4CCOC[C@H]4C)c4cnc(C)n4c3)C2)CC1 (stereo partly drawn) [Example 320] |
| 0.0042 | CCN(C(=O)c1cc(F)ccc1-c1cc(C2CN([C@H](CCCN3CCN(S(C)(=O)=O)CC3)C(C)C)C2)cn2c(C)ncc12)C(C)C [Example 397] |
| 0.0019 | CCN(C(=O)c1cc(F)ccc1-c1cc(C2CN([C@H](CCCN3CCN(C4(C(=O)N(C)C)COC4)CC3)C(C)C)C2)cn2c(C)ncc12)C(C)C [Example 476, 3-{4-[(4R)-4-[3-(8-{2-[ethyl(isopropyl)aminoformyl]-4-fluorophenyl}-3-methylimidazo[1,5-a]pyridin-6-yl)azacyclobutan-1-yl]-5-methylhexyl]piperazin-1-yl}-N,N-dimethyloxacyclobutan-3-formamide] |
| 0.0016 | CCN(C(=O)c1cc(F)ccc1-c1cc(C2CN([C@H](CCCN3CCN[C@H](CF)C3)C(C)C)C2)cn2c(C)ncc12)C(C)C [Example 501] |
| 0.008 | Cc1nc(F)c2c(-c3ccc(F)cc3C(=O)N3CCOC[C@H]3C)cc(C3CN([C@@H](C)C4CCN(C(=O)CC(F)F)CC4)C3)cn12 [Example 304] |
| 0.0175 | CCN(C(=O)c1cc(F)ccc1-c1cc(C2=CCC(NCc3ccc(-c4cc(OC)c(OC)nn4)cc3)CC2)n2ccncc12)C(C)C (stereo not drawn) [Example 4, 2-{6-[4-({[4-(5,6-dimethoxypyridazin-3-yl)phenyl]methyl}amino)cyclohexyl-1-ene-1-yl]pyrrolo[1,2-a]pyrazin-8-yl}-N-ethyl-5-fluoro-N-isopropylbenzamide] |
| 0.004 | Cc1nc(F)c2c(-c3ccc(F)cc3C(=O)N3CCOC[C@H]3C)cc(C3CN([C@H](CN4CCNCC4)C(C)C)C3)cn12 [Example 367-2, (3R)-4-[5-fluoro-2-(1-fluoro-3-methyl-6-{1-[(2S)-3-methyl-1-(piperazin-1-yl)butan-2-yl]azacyclobutan-3-yl}imidazo[1,5-a]pyridin-8-yl)benzoyl]-3-methylmorpholine] |
| 0.0195 | CCN(C(=O)c1cc(F)ccc1-c1cc(C2CN([C@H](CN3CCN(C(C)=O)CC3)C(C)C)C2)cn2c(C)ncc12)C(C)C [Example 443] |
| 0.032 | Cc1nc(F)c2c(-c3ccc(F)cc3C(=O)N3CCOC[C@H]3C)cc(C3CN(C(CC[C@@H]4COCCN4C)C(C)C)C3)cn12 (stereo partly drawn) [Example 372, (3R)-4-{5-fluoro-2-[1-fluoro-3-methyl-6-(1-{4-methyl-1-[(3R)-4-methylmorpholin-3-yl]pentan-3-yl}azacyclobutan-3-yl)imidazo[1,5-a]pyridin-8-yl]benzoyl}-3-methylmorpholine] |
| 0.025 | CCN(C(=O)c1cc(F)ccc1-c1cc(C2CN(C(CCC3(O)COC3)C(C)C)C2)cn2c(C)ncc12)C(C)C (stereo not drawn) [Example 447, N-ethyl-5-fluoro-2-(6-{1-[1-(3-hydroxyloxacyclobutan-3-yl)-4-methylpentan-3-yl]azacyclobut-3-yl}-3-methylimidazo[1,5-a]pyridin-8-yl)-N-(isopropyl)benzamide] |
